Earlier results as cited in patent US6468469B2, “Reuse determination for high level disinfectant” (Metrex Research Corporation, priority 2000, dated 2002).

Tested on: M. tuberculosis
Details: alone at a concentration of up to 7.5%

OO [hydrogen peroxide]
kill of M. tuberculosis: does not kill
